According to article PMC9569649, “Naked and Decorated Nanoparticles Containing H2S-Releasing Doxorubicin: Preparation, Characterization and Assessment of Their Antitumoral Efficiency on Various Resistant Tumor Cells” (International Journal of Molecular Sciences, 2022):
Values after ≈ are worked out from the molar mass of the structure shown. Counter-ions that a name gives are not always drawn. Like-named read-outs stand apart in the source and are kept apart here.

What was measured:
[1] = design: method as in PMID 23973213; conditions: human serum; pseudo-first-order kinetics; cited from earlier work
U-2OS/DX580 cells [2] = assay: Cell viability (ATPLite); assay type: cell-based, human; conditions: U-2OS/DX580 (resistant); 72 h, 5 µM
Method: (§1) In each of the following experimental sets, cells were incubated with specific dilutions of NPs to reach a final concentration of 5 μM H2S-DOXO, or with 5 μM DOXO or H2S-DOXO, as reference. Samples under study were: free DOXO, free H2S-DOXO, NP-H2S-DOXO 3% PVP, and HA-NP-CTAB-H2S-DOXO. Viability. 1 × 10^5 cells were seeded in 96 well plates and incubated for 72 h with DOXO, H2S-DOXO or the different NPs. Cell viability was evaluated using the ATPLite kit (PerkinElmer, Waltham, MA), as per manufacturer’s instructions, using a Synergy-HTX 96-well reader (Bio-Tek Instruments, Winooski, VT). The relative luminescence units (RLUs) of the untreated cells were considered 100%; the RLUs of the other experimental conditions were expressed as percentage versus untreated cells.

MCF-7 cells [3] = assay: Cell viability (ATPLite); assay type: cell-based, human; conditions: MCF-7 (sensitive); 72 h, 5 µM
Method: as §1

MDA-MB-231 cells [4] = assay: Cell viability (ATPLite); assay type: cell-based, human; conditions: MDA-MB-231 (resistant); 72 h, 5 µM
Method: as §1

U-2OS cells [5] = assay: Cell viability (ATPLite); assay type: cell-based, human; conditions: U-2OS (sensitive); 72 h, 5 µM
Method: as §1

[6] = tested on: DU-145 prostate cancer cell line; design: method as in PMID 29607467; conditions: androgen-independent, DOXO-resistant DU-145; cited from earlier work
JC cells [7] = assay: Acute cytotoxicity (release of LDH); assay type: cell-based, murine; conditions: JC (resistant); 24 h, 5 µM
Method: (§2) In each of the following experimental sets, cells were incubated with specific dilutions of NPs to reach a final concentration of 5 μM H2S-DOXO, or with 5 μM DOXO or H2S-DOXO, as reference. Samples under study were: free DOXO, free H2S-DOXO, NP-H2S-DOXO 3% PVP, and HA-NP-CTAB-H2S-DOXO. Acute cytotoxicity. Culture medium from 2 × 10^6 cellule was centrifuged at 12,000 g for 15 min to pellet cell debris, while cells were washed with PBS twice, detached with trypsin/EDTA (0.05/0.02% v/v), rinsed in 0.2 mL of 82.3 mM triethanolamine phosphate-HCl (pH 7.6), and sonicated in ice with 10 s (100 W, Sonicator Labsonic); 5 μL of cell lysate was used to measure the intracellular protein content (BCA1 kit). The activity of extracellular lactate dehydrogenase (LDH), considered as an index of DOXO acute cell damage, was measured on 50 μL of cell culture medium, incubated at 37 °C with […]. The same assay was performed on 5 μL of cell lysate, to measure intracellular LDH. The kinetics of NADH oxidation was followed for 6 min measuring the absorbance at 340 nm with a Synergy HTX 96-well reader (Bio-Tek Instruments). The kinetics was linear overtime. Results were expressed as % extracellular LDH/total (extracellular+intracellular) LDH.

K7M2 cells [8] = assay: Acute cytotoxicity (release of LDH); assay type: cell-based, murine; conditions: K7M2 (resistant); 24 h, 5 µM
Method: as §2

DU-145 cells = conditions: cited from earlier work
[9] = H2S-DOXO solubility in aqueous and organic solvent; assay type: physicochemical; conditions: room temperature (22–23 °C)
Method: The solubility of H2S-DOXO in water/acetonitrile (60/40 v/v ratio), methanol, 0.1 M pH 7.2 phosphate buffer, propylene glycol, and benzyl alcohol was determined as follows: an excess of H2S-DOXO was added to the organic or aqueous solution (1 mL); after 2-h equilibration at room temperature (22–23 °C) in a sealed vial under 600 rpm magnetic stirring, the suspension was centrifuged at 1397× g for 10 min, and the supernatant solution analyzed by RP-HPLC. The time needed to reach equilibrium solubility was determined by analyzing samples of the equilibrating solution at different time points to establish constant drug solubility.

[10] = In vitro drug release (dialysis method); assay type: physicochemical; conditions: PBS pH 7.4, 37 °C, reference: 20% propylene glycol aqueous solution
Method: In vitro drug release. Release of H2S-DOXO from NPs was evaluated using the dialysis method. An aliquot of HA-NP-CTAB-H2S-DOXO was placed in a dialysis bag, and the dialysis bag, sealed at the ends, was immersed into 40 mL of phosphate buffered saline (PBS, pH 7.4) at 37 °C stirring at 100 rpm. At predetermined time intervals, 1 mL PBS was withdrawn and replaced with an equal volume of fresh PBS. Release was monitored for 5 h. The overtime released H2S-DOXO was analyzed by RP-HPLC. As a reference, a 20% propylene glycol aqueous solution of H2S-DOXO was used.

JC cells [11] = assay: Cell viability (ATPLite); assay type: cell-based, murine; conditions: JC (resistant); 72 h, 5 µM
Method: as §1

K7M2 cells [12] = assay: Cell viability (ATPLite); assay type: cell-based, murine; conditions: K7M2 (resistant); 72 h, 5 µM
Method: as §1

[13] = H2S-DOXO stability in the presence of microemulsion ingredients (RP-HPLC); assay type: physicochemical; conditions: water/acetonitrile 60/40 v/v; for Residual Concentration % t24: 24 h
Method: The chemical stability of H2S-DOXO in water/acetonitrile 60/40 v/v in the presence of µE ingredients, at the same ratio (w/w) used in the µE, was tested to select the suitable ingredients and to ensure the integrity of H2S-DOXO into the formulation. In Table 3, the stability at t0 and t24 h (t24) is expressed as percent of residual concentration in the presence of ingredients compared with that without ingredients at t0 (100%).
H2S-DOXO stability in water/acetonitrile (60/40 v/v ratio) in the presence of NaTC, NaGC, lecithin (phosphatidylcoline 95–98%), ST, CTAB, and Cremophor®RH60 was determined at t0 and after 24 h (t24) by RP-HPLC comparing the drug concentration with that in water/acetonitrile solution at t0, assuming it as 100%.

U-2OS/DX580 cells [14] = assay: Acute cytotoxicity (release of LDH); assay type: cell-based, human; conditions: U-2OS/DX580 (resistant); 24 h, 5 µM
Method: as §2

MCF-7 cells [15] = assay: Acute cytotoxicity (release of LDH); assay type: cell-based, human; conditions: MCF-7 (sensitive); 24 h, 5 µM
Method: as §2

MDA-MB-231 cells [16] = assay: Acute cytotoxicity (release of LDH); assay type: cell-based, human; conditions: MDA-MB-231 (resistant); 24 h, 5 µM
Method: as §2

U-2OS cells [17] = assay: Acute cytotoxicity (release of LDH); assay type: cell-based, human; conditions: U-2OS (sensitive); 24 h, 5 µM
Method: as §2

[18] = H2S-DOXO stability in solvents (RP-HPLC); assay type: physicochemical; conditions: 30-day storage at 4 °C, vs t0 (100%)
Method: The chemical stability of H2S-DOXO in water/acetonitrile 60/40 v/v (mobile phase for HPLC analysis) and in methanol (solvent used for extraction from NPs to determining EE%) was tested by RP-HPLC after 30-day storage (t30). In Table 2, the stability was expressed as a percentage of residual concentration at t30 compared with the concentration at t0 (100%).
H2S-DOXO stability in water/acetonitrile (60/40 v/v ratio) and methanol was determined after 30-day (t30) storage at 4 °C following the drug concentration over time by RP-HPLC and comparing it with the concentration at t0, assuming it as 100%.

K7M2 tumor = tested on: K7M2 tumor; design: method as in PMID 31047947; conditions: cited from earlier work
[19] = 3-week injection, nude mice with subcutaneous DU-145 cells

Structure (SMILES): COc1cccc2c1C(=O)c1c(O)c3c(c(O)c1C2=O)C[C@@](O)(C(=O)COC(=O)c1ccc(-c2ssc(=S)c2-c2ccccc2)cc1)C[C@@H]3O[C@H]1C[C@H](N)[C@H](O)[C@H](C)O1 [H2S-DOXO, doxorubicin 14-[4-(4-phenyl-5-thioxo-5H-[1,2]dithiol-3-yl)]-benzoate]
- t1/2 of hydrolysis [1]: 2.8 h
- subacute toxicity, reduced cell viability (U-2OS/DX580 cells [2]): significantly more effective than DOXO
- subacute toxicity, reduced cell viability (MCF-7 cells [3]): did not offer any further advantage compared to DOXO
- subacute toxicity, reduced cell viability (MDA-MB-231 cells [4]): significantly more effective than DOXO
- subacute toxicity, reduced cell viability (U-2OS cells [5]): did not offer any further advantage compared to DOXO
- cytotoxicity [6]: high cytotoxicity
- intracellular accumulation [6]: good intracellular accumulation
- acute toxicity, release of LDH (JC cells [7]): induced a significant release of LDH
- acute toxicity, release of LDH (K7M2 cells [8]): induced a significant release of LDH
- percentage of apoptotic cells (DU-145 cells; [19]): an increase in the percentage of apoptotic cells
- reduction in tumor volume (DU-145 cells; [19]): 60%
- tolerability / safety profile (DU-145 cells; nude mice with subcutaneous DU-145 cells): well tolerated and had a better safety profile
- Solubility ([9]; benzyl alcohol): 1400 ± 700 µg/mL (≈ 1.64 mM)
- Solubility ([9]; methanol): 3820 ± 300 µg/mL (≈ 4.46 mM)
- Solubility ([9]; pH 7.2 phosphate buffer (0.1 M)): 30 ± 10 µg/mL (≈ 0.035 mM)
- Solubility ([9]; propylene glycol): 2830 ± 300 µg/mL (≈ 3.31 mM)
- Solubility ([9]; water/acetonitrile (60/40 v/v)): 3400 ± 500 µg/mL (≈ 3.97 mM)
- H2S-DOXO release in 5 h [10]: ~100%
- subacute toxicity, reduced cell viability (JC cells [11]): significantly more effective than DOXO
- subacute toxicity, reduced cell viability (K7M2 cells [12]): significantly more effective than DOXO
- Residual Concentration % t24 ([13]; in presence of CTAB): 100%
- Residual Concentration % t0 ([13]; in presence of CTAB): 100%
- Residual Concentration % t24 ([13]; in presence of Cremophor RH60): 0%
- Residual Concentration % t0 ([13]; in presence of Cremophor RH60): 5%
- Residual Concentration % t24 ([13]; in presence of Epikuron 200): 100%
- Residual Concentration % t0 ([13]; in presence of Epikuron 200): 100%
- Residual Concentration % t24 ([13]; in presence of NaGC): 98%
- Residual Concentration % t0 ([13]; in presence of NaGC): 100%
- Residual Concentration % t24 ([13]; in presence of NaTC): 0%
- Residual Concentration % t0 ([13]; in presence of NaTC): 34%
- Residual Concentration % t24 ([13]; in presence of ST): 14%
- Residual Concentration % t0 ([13]; in presence of ST): 44%
- acute toxicity, release of LDH (U-2OS/DX580 cells [14]): induced a significant release of LDH
- acute toxicity, release of LDH (MCF-7 cells [15]): comparable
- acute toxicity, release of LDH (MDA-MB-231 cells [16]): induced a significant release of LDH
- acute toxicity, release of LDH (U-2OS cells [17]): comparable
- Residual Concentration % t30 ([18]; methanol): 98.7%
- Residual Concentration % t30 ([18]; water/acetonitrile (60/40 v/v)): 97.3%

Structure (SMILES): COc1cccc2c1C(=O)c1c(O)c3c(c(O)c1C2=O)C[C@@](O)(C(=O)CO)C[C@@H]3O[C@H]1C[C@H](N)[C@H](O)[C@H](C)O1 [DOXO, doxorubicin hydrochloride]
- tumor growth (K7M2 tumor; K7M2 tumors (CD44- and Pgp-overexpressing)): neither DOXO nor Caelyx® reduced the growth of these tumors
- apoptosis / caspase-3 activation in the tumor (K7M2 tumor; K7M2 tumors): nor did they induce apoptosis in the tumor
- subacute toxicity, reduced cell viability (U-2OS/DX580 cells [2]): ineffective
- subacute toxicity, reduced cell viability (MDA-MB-231 cells [4]): ineffective
- acute toxicity, release of LDH (JC cells [7]): devoid of any cytotoxic effects
- acute toxicity, release of LDH (K7M2 cells [8]): devoid of any cytotoxic effects
- tolerability / safety profile (DU-145 cells; mouse, in vivo, sc): associated with weight loss and cardiotoxicity
- subacute toxicity, reduced cell viability (JC cells [11]): ineffective
- subacute toxicity, reduced cell viability (K7M2 cells [12]): ineffective
- acute toxicity, release of LDH (U-2OS/DX580 cells [14]): devoid of any cytotoxic effects
- acute toxicity, release of LDH (MCF-7 cells [15]): comparable
- acute toxicity, release of LDH (MDA-MB-231 cells [16]): devoid of any cytotoxic effects
- acute toxicity, release of LDH (U-2OS cells [17]): comparable
